Reference: patent US20100152188A1, “Novel Heterocyclic Compounds” (priority 2005, published 2010)

Columns and labels:
[1] = tested on: NCIH460; assay: Anti-cancer screen (MTT), NCIH460; type: cell-based; conditions: Homo sapiens, NCI-H460, 48 hours with compound, tested at 0.01-100 µM
Summary of the method: (§1)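 5000 cells/well, DMEM + 10% FBS, 24 h attach; cpd 0.01–100 µM ×5 conc, triplicate, 48 h, 37 °C/5% CO2; MTT 3 h, DMSO solubilisation, A570; %growth vs control and T0 → GI50/TGI/LC50.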

[2] = tested on: HCT116; assay: Anti-cancer screen (MTT), HCT116; type: cell-based; conditions: Homo sapiens, HCT-116, 48 hours with compound, tested at 0.01-100 µM
Summary of the method: as §1

[3] = tested on: MDAMB-231/U 251; assay: Anti-cancer screen (MTT), MDAMB-231/U 251; type: cell-based; conditions: for CC50: 48 h, read-out: MDAMB-231/U 251 LC50; for GI50 / IC (TGI): 48 hours with compound, MTT, tested at 0.01-100 µM
Summary of the method: as §1

[4] = tested on: NCIH460, HCT116, MDAMB-231/U 251; assay: Anti-cancer screen, mean GI50 over the cell lines; type: cell-based; conditions: in µM
Summary of the method: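 HCT116, NCIH460 and U251 cells (5000/well) were seeded for 24 h, then exposed in triplicate to 0.01, 0.1, 1, 10 and 100 µM final compound for 48 h. Viability was read by MTT (3 h, absorbance 570 nm), and percent growth was calculated against untreated controls and a T0 plate read at compound addition.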

[5] = tested on: HDAC; assay: HDAC inhibition; type: biochemical; conditions: for HDAC Inhibition 1 μM: compound at 1 μM; for HDAC Inhibition 10 μM: compound at 10 μM

COC(CNC(=O)c1ccc(CNC(=O)OCc2cccs2)cc1)OC [Example 53, 2-Thienylmethyl (4-{[(2,2-dimethoxyethyl)amino]carbonyl}benzyl)carbamate]
GI50 [1]: 0.02 µM | IC (TGI) [1]: 1 µM | LC50 [1]: > 100 µM | GI50 [2]: 0.12 µM | IC (TGI) [2]: 6.1 µM | LC50 (concentration giving 50% net cell kill relative to T0) [2]: > 100 µM | CC50 [3]: > 100 µM | GI50 [3]: 7.1 µM | IC (TGI) [3]: > 100 µM | Mean GI50 [4]: 2.4 | HDAC Inhibition 1 μM [5]: 4.3 | HDAC Inhibition 10 μM [5]: 1.6

CCOC(=O)Cc1csc(NC(=O)c2ccc(CNC(=O)OCc3cccs3)cc2)n1 [Example 54, Ethyl{2-[(4-{[(2-thienylmethyloycarbonyl)amino]methyl}benzoyl)amino]-1,3-thiazol-4-yl}acetate]
GI50 [1]: 0.05 µM | IC (TGI) [1]: 0.8 µM | LC50 [1]: 91 µM | GI50 [2]: 3 µM | IC (TGI) [2]: 9.3 µM | LC50 (concentration giving 50% net cell kill relative to T0) [2]: 97 µM | CC50 [3]: > 100 µM | GI50 [3]: 0.2 µM | IC (TGI) [3]: 62 µM | Mean GI50 [4]: 1.1 | HDAC Inhibition 1 μM [5]: 0.6 | HDAC Inhibition 10 μM [5]: 8.1

Nc1cccc(NC(=O)c2ccc(CNC(=O)OCc3cccs3)cc2)c1 [Example 55, 2-Thienylmethyl(4-{[(3-aminophenyl)amino]carbonyl}benzyl)carbamate]
GI50 [1]: 4 µM | IC (TGI) [1]: 40 µM | LC50 [1]: > 100 µM | GI50 [2]: 18 µM | IC (TGI) [2]: > 100 µM | LC50 (concentration giving 50% net cell kill relative to T0) [2]: > 100 µM | CC50 [3]: 45 µM | GI50 [3]: 0.07 µM | IC (TGI) [3]: 0.6 µM | Mean GI50 [4]: 7 | HDAC Inhibition 1 μM [5]: 7.41 | HDAC Inhibition 10 μM [5]: 26

O=C(NCc1ccc(C(=O)N2CCN(Cc3ccc4c(c3)OCO4)CC2)cc1)OCc1nccs1 [Example 57, 1,3-Thiazol-2-ylmethyl(4-{[4-(1,3-benzodioxol-5-ylmethyl)piperazin-1-yl]carbonyl}benzyl)carbamate]
GI50 [1]: 0.4 µM | IC (TGI) [1]: 0.9 µM | LC50 [1]: > 100 µM | GI50 [2]: 7 µM | IC (TGI) [2]: > 100 µM | LC50 (concentration giving 50% net cell kill relative to T0) [2]: > 100 µM | CC50 [3]: > 100 µM | GI50 [3]: 0.4 µM | IC (TGI) [3]: 0.9 µM | Mean GI50 [4]: 2.6 | HDAC Inhibition 1 μM [5]: −1.94 | HDAC Inhibition 10 μM [5]: −1

O=C(NCc1ccc(C(=O)Nc2nnc(C(F)(F)F)s2)cc1)OCc1nc2ccccc2s1 [Example 58, 1,3-Benzothiazol-2-ylmethyl[4-({[5-(trifluoromethyl)-1,3,4-thiadiazol-2-yl]amino}carbonyl)benzyl]carbamate]
GI50 [1]: 2 µM | IC (TGI) [1]: 7 µM | LC50 [1]: > 100 µM | GI50 [2]: 20 µM | IC (TGI) [2]: > 100 µM | LC50 (concentration giving 50% net cell kill relative to T0) [2]: > 100 µM | CC50 [3]: 83 µM | GI50 [3]: 0.04 µM | IC (TGI) [3]: 0.8 µM | Mean GI50 [4]: 7.3 | HDAC Inhibition 1 μM [5]: 0.4 | HDAC Inhibition 10 μM [5]: −11.54

O=C(NCc1ccc(C(=O)Nc2nnc(C(F)(F)F)s2)cc1)OCc1cccs1 [Example 59, 2-Thienylmethyl[4-({[5-(trifluoromethyl)-1,3,4-thiadiazol-2-yl]amino}carbonyl)benzyl]carbamate]
GI50 [1]: 53 µM | IC (TGI) [1]: 95 µM | LC50 [1]: > 100 µM | GI50 [2]: > 100 µM | IC (TGI) [2]: > 100 µM | LC50 (concentration giving 50% net cell kill relative to T0) [2]: > 100 µM | CC50 [3]: > 100 µM | GI50 [3]: 74 µM | IC (TGI) [3]: > 100 µM | Mean GI50 [4]: 63.5 | HDAC Inhibition 1 μM [5]: 14.41

O=C(NCc1ccc(C(=O)N2CCC(N3CCCCC3)CC2)cc1)OCC1COc2ccccc2O1 (centres unmarked) [Example 60, 2,3-Dihydro-1,4-benzodioxin-2-ylmethyl[{4-(piperidinopiperidin-1-yl)carbonyl}benzyl]carbamate]
GI50 [1]: 7 µM | IC (TGI) [1]: 83 µM | LC50 [1]: > 100 µM | GI50 [2]: 65 µM | IC (TGI) [2]: > 100 µM | LC50 (concentration giving 50% net cell kill relative to T0) [2]: > 100 µM | CC50 [3]: > 100 µM | GI50 [3]: > 100 µM | IC (TGI) [3]: > 100 µM | Mean GI50 [4]: 36 | HDAC Inhibition 1 μM [5]: 1.4

O=C(NCc1ccc(C(=O)Nc2nnc(C3CC3)s2)cc1)OCc1c(F)cc(F)cc1F [Example 63, 2,4,6-Trifluorobenzyl(4-{[(5-cyclopropyl-1,3,4-thiadiazol-2-yl)amino]carbonyl}benzyl)carbamate]
GI50 [1]: 0.05 µM | IC (TGI) [1]: 6 µM | LC50 [1]: > 100 µM | GI50 [2]: 16 µM | IC (TGI) [2]: > 100 µM | LC50 (concentration giving 50% net cell kill relative to T0) [2]: > 100 µM | CC50 [3]: > 100 µM | GI50 [3]: 0.5 µM | IC (TGI) [3]: 5 µM | Mean GI50 [4]: 5.52 | HDAC Inhibition 10 μM [5]: 0.17

O=C(NCc1ccc(C(=O)Nc2nnc(C(F)(F)F)s2)cc1)OCc1nccs1 [Example 64, 1,3-Thiazol-2-ylmethyl[4-({[5-(trifluoromethyl)-1,3,4-thiadiazol-2-yl]amino}carbonyl)benzyl]carbamate]
GI50 [1]: > 100 µM | IC (TGI) [1]: > 100 µM | LC50 [1]: > 100 µM | GI50 [2]: > 100 µM | IC (TGI) [2]: > 100 µM | LC50 (concentration giving 50% net cell kill relative to T0) [2]: > 100 µM | CC50 [3]: > 100 µM | GI50 [3]: > 100 µM | IC (TGI) [3]: > 100 µM | Mean GI50 [4]: >100 | HDAC Inhibition 1 μM [5]: 4.95 | HDAC Inhibition 10 μM [5]: 7.43

O=C(NCc1ccc(C(=O)Nc2nnc(C3CC3)s2)cc1)OCc1nccs1 [Example 65, 1,3-Thiazol-2-ylmethyl(4-{[(5-cyclopropyl-1,3,4-thiadiazol-2-yl)amino]carbonyl}benzyl)carbamate]
GI50 [1]: 12 µM | IC (TGI) [1]: 85 µM | LC50 [1]: > 100 µM | GI50 [2]: 36 µM | IC (TGI) [2]: > 100 µM | LC50 (concentration giving 50% net cell kill relative to T0) [2]: > 100 µM | CC50 [3]: > 100 µM | GI50 [3]: 5 µM | IC (TGI) [3]: 45 µM | Mean GI50 [4]: 17.67 | HDAC Inhibition 1 μM [5]: 11.65 | HDAC Inhibition 10 μM [5]: 8.84

O=C(NCc1ccc(C(=O)N2CCN(Cc3ccc4c(c3)OCO4)CC2)cc1)OCc1nc2ccccc2s1 [Example 66, 1,3-Benzothiazol-2-ylmethyl(4-{[4-(1,3-benzodioxol-5-ylmethyl)piperazin-1-yl]carbonyl}benzyl)carbamate]
GI50 [1]: 1 µM | IC (TGI) [1]: > 100 µM | LC50 [1]: > 100 µM | GI50 [2]: 4.8 µM | IC (TGI) [2]: > 100 µM | LC50 (concentration giving 50% net cell kill relative to T0) [2]: > 100 µM | CC50 [3]: > 100 µM | GI50 [3]: 6 µM | IC (TGI) [3]: > 100 µM | Mean GI50 [4]: 3.93 | HDAC Inhibition 1 μM [5]: 8.57 | HDAC Inhibition 10 μM [5]: 12.98

O=C(NCc1ccc(C(=O)Nc2nnc(C3CC3)s2)cc1)OCc1nc2ccccc2s1 [Example 67, 1,3-Benzothiazol-2-ylmethyl(4-{[(5-cyclopropyl-1,3,4-thiadiazol-2-yl)amino]carbonyl}benzyl)carbamate]
GI50 [1]: 3.5 µM | IC (TGI) [1]: 9.5 µM | LC50 [1]: > 100 µM | GI50 [2]: 1.8 µM | IC (TGI) [2]: 67 µM | LC50 (concentration giving 50% net cell kill relative to T0) [2]: > 100 µM | CC50 [3]: > 100 µM | GI50 [3]: 3.5 µM | IC (TGI) [3]: 9 µM | Mean GI50 [4]: 2.93 | HDAC Inhibition 1 μM [5]: 12.17 | HDAC Inhibition 10 μM [5]: 11.64

O=C(NCc1ccc(C(=O)N2CCN(c3ncccn3)CC2)cc1)OCc1nccs1 [Example 68, 1,3-thiazol-2-ylmethyl{4-[(4-pyrimidin-2-ylpiperazin-1-yl)carbonyl]benzyl}carbamate]
GI50 [1]: 33 µM | IC (TGI) [1]: > 100 µM | LC50 [1]: > 100 µM | GI50 [2]: 9 µM | IC (TGI) [2]: > 100 µM | LC50 (concentration giving 50% net cell kill relative to T0) [2]: > 100 µM | CC50 [3]: > 100 µM | GI50 [3]: 0.2 µM | IC (TGI) [3]: 21 µM | Mean GI50 [4]: 14.1 | HDAC Inhibition 1 μM [5]: 11.14 | HDAC Inhibition 10 μM [5]: 5.80

O=C(Nc1ccc(C(=O)NO)o1)OCc1ccccc1 [Example 75, Benzyl{5-[(hydroxyamino)carbonyl]-2-furyl}carbamate]
GI50 [1]: 100 µM | IC (TGI) [1]: > 100 µM | LC50 [1]: > 100 µM | GI50 [2]: > 100 µM | IC (TGI) [2]: > 100 µM | LC50 (concentration giving 50% net cell kill relative to T0) [2]: > 100 µM | CC50 [3]: > 100 µM | GI50 [3]: 9 µM | IC (TGI) [3]: 85 µM | Mean GI50 [4]: >100 | HDAC Inhibition 10 μM [5]: 6.61

O=C(Nc1ccc(C(=O)NO)cc1)OCC1c2ccccc2-c2ccccc21 [Example 76]
GI50 [1]: 10 µM | IC (TGI) [1]: 82 µM | LC50 [1]: > 100 µM | GI50 [2]: 7.5 µM | IC (TGI) [2]: 65 µM | LC50 (concentration giving 50% net cell kill relative to T0) [2]: > 100 µM | CC50 [3]: 90 µM | GI50 [3]: 3 µM | IC (TGI) [3]: 9 µM | Mean GI50 [4]: 6.8 | HDAC Inhibition 1 μM [5]: 50.50 | HDAC Inhibition 10 μM [5]: 75.80

CC(=O)N(O)C(=O)Cc1csc(NC(=O)OCc2ccsc2)n1 [Example 77, 3-thienylmethyl(4-{2-[acetyl(hydroxy)amino]-2-oxoethyl}-1,3-thiazol-2-yl)carbamate]
GI50 [1]: 53 µM | IC (TGI) [1]: > 100 µM | LC50 [1]: > 100 µM | GI50 [2]: 60 µM | IC (TGI) [2]: > 100 µM | LC50 (concentration giving 50% net cell kill relative to T0) [2]: > 100 µM | CC50 [3]: > 100 µM | GI50 [3]: 6 µM | IC (TGI) [3]: 65 µM | Mean GI50 [4]: 39.7 | HDAC Inhibition 1 μM [5]: 7.7 | HDAC Inhibition 10 μM [5]: 14.8
